The results in this text go back to patent US7834024B2, “Compositions and methods for inhibition of the JAK pathway” (Rigel Pharmaceuticals, Inc., priority 2007, dated 2010).

For orientation: IC50 means the midpoint of a concentration-inhibition curve.

The first assay relates to Ramos B-Cell Line Stimulated with IL-4 (JAK-1 and JAK-3 / Stat-6, CD23). The assay can be described thus: Assay for Ramos B-Cell Line Stimulated with IL-4 (CD23 upregulation, FACS). The format is cell-based. Particulars: Homo sapiens, Ramos, human Ramos B cells, compound 1 hour, IL-4 50 units/mL for 20-24 hours, anti-CD23-PE FACS; read-out: Example 2 (IC50). An excerpt:
One means of assaying for such inhibition is detection of the effect of the 2,4-pyrimidinediamine compounds on the upregulation of downstream gene products. In the Ramos/IL4 assay, B-cells are stimulated with the cytokine Interleukin-4 (IL-4) leading to the activation of the JAK/Stat pathway through phosphorylation of the JAK family kinases, JAK1 and JAK3, which in turn phosphorylate and activate the transcription factor Stat-6. […] To study the effect of inhibitors (e.g., the 2,4-substituted pyrimindinediamine compounds described herein) on the JAK1 and JAK3 kinases, human Ramos B cells are stimulated with human IL-4. 20 to 24 hours post stimulation, cells are stained for upregulation of CD23 and analyzed using flow cytometry (FACS).
B-cells stimulated with cytokine Interleukin-4 (IL-4) activate the JAK/Stat pathway through phosphorylation of the JAK family kinases, JAK-1 and JAK-3, which in turn phosphorylate and activate the transcription factor Stat-6. […] To study the effect of inhibitors on the JAK family kinases, human Ramos B cells were stimulated with human IL-4.
Cells were maintained at a density of 3.5×10^5. The day before the experiment, Ramos B-cells were diluted to 3.5×10^5 cells/mL to ensure that they were in a logarithmic growth phase.
Cells were spun down and suspended in RPMI with 5% serum. 5×10^4 cells were used per point in a 96-well tissue culture plate. Cells were pre-incubated with compound or DMSO (Sigma-Aldrich, St. Louis, Mo., Cat No. D2650) vehicle control for 1 hour in a 37° C. incubator. Cells were then stimulated with IL-4 (Peprotech Inc., Rocky Hill, N.J., Cat No. 200-04) for a final concentration of 50 units/mL for 20-24 hours. […] Detection was performed using a BD LSR I System Flow Cytometer, purchased from Becton Dickinson Biosciences of San Jose, Calif.
Consider `Cc1cnc(Nc2cccc(C#N)c2)nc1Nc1ccc2c(c1)NC(=O)CS2` [II-9, N2-(3-Cyanophenyl)-5-methyl-N4-(3-oxo-2H,4H-benzo[1,4]thiazin-6-yl)-2,4-pyrimidinediamine], for which the IC50 was 0.0734 µM.

With `N#Cc1ccc(Nc2ncc(F)c(Nc3cccc(OCC(N)=O)c3)n2)cc1` [Compound I-34, N4-(3-Aminocarbonylmethoxyphenyl)-N2-(4-cyanophenyl)-5-fluoro-2,4-pyrimidinediamine], the IC50 turned out to be 1.25 µM.

Regarding `N#CCOc1ccc(Nc2nc(Nc3ccc(CC#N)cc3)ncc2F)cc1Cl` [Compound I-100, N4-(3-Chloro-4-cyanomethoxyphenyl)-N2-(4-cyanomethylphenyl)-5-fluoro-2,4-pyrimidinediamine], the IC50 is 0.083 µM.

Turning to `CN1CCN(c2ccc(Nc3ncc(F)c(Nc4cccc(OCC(N)=O)c4)n3)cc2C(N)=O)CC1` [Compound I-50, N4-(3-Aminocarbonylmethoxyphenyl)-N2-[3-aminocarbonyl-4-(4-methylpiperazin-1-yl)phenyl]-5-fluoro-2,4-pyrimidinediamine], the IC50 was determined as 0.182 µM.

For the molecule `N#CCOc1cccc(Nc2nc(Nc3cccc(C(N)=O)c3)ncc2F)c1` [Compound I-45, N2-(3-Aminocarbonylphenyl)-N4-(3-cyanomethoxyphenyl)-5-fluoro-2,4-pyrimidinediamine], the IC50 was determined as 0.426 µM.

In the case of `CN1C(=O)CSc2ccc(Nc3nc(Nc4ccc(C(N)=O)cc4)ncc3F)cc21` [II-4, N2-(4-Aminocarbonylphenyl)-5-fluoro-N4-(4-methyl-3-oxo-2H-benzo[1,4]thiazin-6-yl)-2,4-pyrimidinediamine], the IC50 came out at 0.00543 µM.

In the case of `N#CCc1ccc(Nc2nc(Nc3ccc(C#N)cc3)ncc2F)cc1` [Compound I-69, N4-(4-Cyanomethylphenyl)-N2-(4-cyanophenyl)-5-fluoro-2,4-pyrimidinediamine], the IC50 was found to be 7.19 µM.

Regarding `CCc1cc(Nc2ncc(F)c(Nc3ccc(CC#N)cc3)n2)cc(C#N)c1Cl` [Compound I-106, N2-(4-Chloro-3-cyano-5-ethylphenyl)-N4-(4-cyanomethylphenyl)-5-fluoro-2,4-pyrimidinediamine], the IC50 came to 7.02 µM.

As to `N#CCc1ccc(Nc2ncc(F)c(Nc3ccc(Cc4ccncc4)cc3)n2)cc1` [Compound I-131, N2-(4-Cyanomethylphenyl)-5-fluoro-N4-[4-(4-pyridinylmethyl)phenyl]-2,4-pyrimidinediamine], the IC50 stood at 0.382 µM.

Regarding `COc1ccc(Nc2nc(Nc3cccc(C#N)c3)ncc2F)cc1Cl` [Compound I-18, N4-(3-Chloro-4-methoxyphenyl)-N2-(3-cyanophenyl)-5-fluoro-2,4-pyrimidinediamine], the IC50 stood at 0.266 µM.

Regarding `CCc1cc(Nc2ncc(F)c(Nc3ccc4c(c3)NC(=O)CS4)n2)cc(C#N)c1Cl` [II-23, N2-(4-Chloro-3-cyano-5-ethylphenyl)-5-fluoro-N4-(3-oxo-2H,4H-benzo[1,4]thiazin-6-yl)-2,4-pyrimidinediamine], the IC50 came to 0.174 µM.

For the molecule `N#Cc1cccc(Nc2ncc(F)c(Nc3cccc(OCC(N)=O)c3)n2)c1` [Compound I-35, N4-(3-Aminocarbonylmethoxyphenyl)-N2-(3-cyanophenyl)-5-fluoro-2,4-pyrimidinediamine], the IC50 came out at 0.326 µM.

Take `Cc1cc(Nc2nc(Nc3cccc(C(N)=O)c3)ncc2F)cc(C)c1OCC#N` [Compound I-91, N2-(3-Aminocarbonylphenyl)-N4-(4-cyanomethoxy-3,5-dimethylphenyl)-5-fluoro-2,4-pyrimidinediamine]: the IC50 was 0.333 µM.

As to `N#CCOc1ccc(Nc2nc(Nc3cccc(C(N)=O)c3)ncc2F)cc1F` [Compound I-102, N2-(3-Aminocarbonylphenyl)-N4-(4-cyanomethoxy-3-fluorophenyl)-5-fluoro-2,4-pyrimidinediamine], the IC50 is 0.259 µM.

For `Cc1noc(COc2ccc(Nc3nc(Nc4ccc(CC#N)cc4)ncc3F)c(C)c2)n1` [Compound I-115, N2-(4-Cyanomethylphenyl)-5-fluoro-N4-[2-methyl-4-((3-methyl-1,2,4-oxadiazol-5-yl)methoxy)phenyl]-2,4-pyrimidinediamine], the IC50 turned out to be 0.258 µM.

Take `Cc1cc(Nc2nc(Nc3ccc(CC#N)cc3)ncc2F)cc(C)c1OCC#N` [Compound I-89, N4-(4-Cyanomethoxy-3,5-dimethylphenyl)-N2-(4-cyanomethylphenyl)-5-fluoro-2,4-pyrimidinediamine]: the IC50 was determined as 0.167 µM.

Regarding `Cc1cc(Nc2nc(Nc3ccc(C(N)=O)cc3)ncc2F)ccc1OCC#N` [Compound I-87, N2-(4-Aminocarbonylphenyl)-N4-(4-cyanomethoxy-3-methylphenyl)-5-fluoro-2,4-pyrimidinediamine], the IC50 is 0.0444 µM.

Turning to `CCc1cc(Nc2ncc(F)c(Nc3ccc4c(c3)NC(=O)CO4)n2)cc(C#N)c1Cl` [II-27, N2-(4-Chloro-3-cyano-5-ethylphenyl)-5-fluoro-N4-(3-oxo-2H,4H-benzo[1,4]oxazin-6-yl)-2,4-pyrimidinediamine], the IC50 came out at 4.82 µM.

Consider `Cc1cnc(Nc2cnc3c(c2)OC(C)(C)C(=O)N3)nc1Nc1cnc2c(c1)OC(C)(C)C(=O)N2` [VII-1, N4,N2-Bis(2,2-Dimethyl-3-oxo[4H]-5-pyrido[1,4]oxazin-7-yl)-5-methyl-2,4-pyrimidinediamine], for which the IC50 was 2.63 µM.

Staying with this assay, now noted: human Ramos B cells, compound 1 hour, IL-4 50 units/mL for 20-24 hours, anti-CD23-PE FACS; read-out: Example 2 (IC50).
Consider `Cc1noc(COc2ccc(N(C)c3nc(Nc4ccc(C(N)=O)c(Cl)c4)ncc3F)cc2)n1` [Compound I-16, N2-(4-Aminocarbonyl-3-chlorophenyl)-5-fluoro-N4-methyl-N4-[4-((3-methyl-1,2,4-oxadiazol-5-yl)methyleneoxy)phenyl]-2,4-pyrimidinediamine], for which the half-maximal inhibitory concentration (IC50) amounted to 0.909 µM.

Turning to `NC(=O)c1cccc(Nc2ncc(F)c(Nc3ccc(OCc4ccccn4)cc3)n2)c1` [Compound I-133, N2-(3-Aminocarbonylphenyl)-5-fluoro-N4-[4-(2-pyridinylmethyleneoxy)phenyl]-2,4-pyrimidinediamine], the IC50 came to 1.56 µM.

On to `CN1CCN(C(=O)c2ccc(Nc3ncc(F)c(Nc4cccc(OCC#N)c4)n3)cc2)CC1` [Compound I-53, N4-(3-Cyanomethoxyphenyl)-5-fluoro-N2-[4-((4-methylpiperazin-1-yl)carbonyl)phenyl]-2,4-pyrimidinediamine], for which the IC50 was found to be 1.42 µM.

For the molecule `CN1CCN(C(=O)c2ccc(Nc3ncc(F)c(Nc4ccc(CC#N)cc4)n3)cc2)CC1` [Compound I-73, N4-(4-Cyanomethylphenyl)-5-fluoro-N2-[4-((4-methylpiperazin-1-yl)carbonyl)phenyl]-2,4-pyrimidinediamine], the IC50 came out at 1.73 µM.

For the molecule `CC(C#N)Oc1ccc(Nc2nc(Nc3cccc(C#N)c3)ncc2F)cc1` (centres unmarked) [Compound I-80, N4-[4-(I-Cyanoethoxy)phenyl]-N2-(3-cyanophenyl)-5-fluoro-2,4-pyrimidinediamine], the IC50 is 0.189 µM.

On to `Cc1nc(COc2ccc(Nc3nc(Nc4ccc(C(=O)N5CCN(C)CC5)cc4)ncc3F)cc2)no1` [Compound I-61, 5-Fluoro-N4-[4-((5-methyl-1,2,4-oxadiazol-3-yl)methoxy)phenyl]-N2-[4-((4-methylpiperazin-1-yl)carbonyl)phenyl]-2,4-pyrimidinediamine], for which the IC50 turned out to be 0.898 µM.

Take `CNC(=O)COc1cccc(Nc2ncc(C)c(Nc3ccc4c(c3)NC(=O)CO4)n2)c1` [II-5, 5-Methyl-N2-[3-(N-methylaminocarbonylmethyleneoxy)phenyl]-N4-(3-oxo-2H,4H-benzo[1,4]oxazin-6-yl)-2,4-pyrimidinediamine]: the IC50 worked out at 0.0285 µM.
